# Source: patent publication US11590107B2, “Methods for treating neurological disorders with α1A-AR partial agonists” (CURASEN THERAPEUTICS, INC., priority 2019, dated 2023)
# Read-outs that look alike come from different tables or passages of the source.
# Assays:
# [1] = test system: patients with central autonomic failure; conditions: Ramirez et al. 2014, Shibao et al. 2007; cited from earlier work
# α1A-AR receptor [2] = target: T1, α1A-AR receptor (Homo sapiens, UniProt P35348); conditions: InsPs accumulation assay; Blue et al., Table 1; cited from earlier work
# T1 sequence (P35348 1-466): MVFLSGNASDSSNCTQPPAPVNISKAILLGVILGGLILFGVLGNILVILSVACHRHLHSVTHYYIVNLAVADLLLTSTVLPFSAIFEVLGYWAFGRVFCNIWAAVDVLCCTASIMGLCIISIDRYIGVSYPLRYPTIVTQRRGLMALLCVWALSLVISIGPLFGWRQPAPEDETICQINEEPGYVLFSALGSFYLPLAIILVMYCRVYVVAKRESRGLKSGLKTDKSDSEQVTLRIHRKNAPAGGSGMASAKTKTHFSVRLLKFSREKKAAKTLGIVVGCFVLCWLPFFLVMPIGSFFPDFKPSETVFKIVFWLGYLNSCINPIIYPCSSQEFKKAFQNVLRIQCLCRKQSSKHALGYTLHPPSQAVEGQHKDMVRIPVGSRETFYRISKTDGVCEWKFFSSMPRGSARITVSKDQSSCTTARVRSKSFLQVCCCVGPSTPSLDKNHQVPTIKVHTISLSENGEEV
# α1A-AR receptor [3] = target: T1, α1A-AR receptor; conditions: FLIPR assay; Blue et al., Table 1; cited from earlier work
# [4] = test system: patients with symptomatic neurogenic orthostatic hypotension; experiment: Treatment of patients having nOH (Example 1); format: in vivo, human; conditions: 5 mg oral tablets twice daily, follow-up after one week
# Procedure: Patients between the age of 40 and 80 years old that have been diagnosed with symptomatic orthostatic hypotension due to pure autonomic failure, multiple system atrophy or Parkinson's disease (i.e., PD plus symptoms) present for treatment. At the time of presentation, autonomic function testing is conducted to confirm the diagnosis of autonomic dysfunction including sinus arrhythmia and the Valsalva maneuver.
# The patients are given 5 mg dabuzalgron oral tablets and are instructed to take one tablet shortly after waking up in the morning and a second tablet 4-6 hours later each day.
# Some patients return for a follow-up visit after one week of treatment. […] In the follow-up visit supine systolic blood pressure (SSBP) may be determined.
smiles,measurement,setting,value
CNCC[C@@H](Oc1ccccc1C)c1ccccc1 [Atomoxetine],effect on blood pressure,[1],increase blood pressure
"Cc1c(OCC2=NCCN2)ccc(Cl)c1NS(C)(=O)=O [RO 115-1240 (dabuzalgron) free base, N-[6-chloro-3-(4,5-dihydro-1H-imidazol-2-ylmethoxy)-2-methylphenyl] methanesulfonamide]",intrinsic activity as compared to noradrenaline,α1A-AR receptor [2],0.31
"Cc1c(OCC2=NCCN2)ccc(Cl)c1NS(C)(=O)=O.Cl [RO 115-1240 (dabuzalgron) HCl salt, N-[6-chloro-3-(4,5-dihydro-1H-imidazol-2-ylmethoxy)-2-methylphenyl] methanesulfonamide hydrochloride]",intrinsic activity as compared to noradrenaline,α1A-AR receptor [2],0.27
same,intrinsic activity as compared to noradrenaline,α1A-AR receptor [3],0.51
"Cc1c(OCC2=NCCN2)ccc(Cl)c1NS(C)(=O)=O [dabulzagron, N-[6-chloro-3-(4,5-dihydro-1H-imidazol-2-ylmethoxy)-2-methylphenyl] methanesulfonamide]",rise in SSBP compared with patients taking midodrine or droxidopa for nOH,[4],less that that observed in patients taking midodrine or droxidopa
same,rise in supine systolic blood pressure (SSBP),[4],not experience a substantial rise in SSBP
same,symptoms of nOH as compared to the first visit before treatment,[4],improve
